What follows are compounds tested against human NK3 receptor (Homo sapiens (Human), UniProt P29371) (assay: [3H]SR142801 competition binding assay). Details: membranes from HEK293 cells transiently expressing recombinant human NK3 receptor; [3H]SR142801 radioligand; read-out: Ki (uM) hNK3.
Method: [^3H]SR142801 Competition Binding Assay
hNK3 receptor binding experiment were performed using [^3H]SR142801 (Catalog No. TRK1035, specific activity: 74.0 Ci/mmol, Amersham, GE Healthcare UK limited, Buckinghamshire, UK) and membrane isolated from HEK293 cells transiently expressing recombinant human NK3 receptor. After thawing, the membrane homogenates were centrifuged at 48,000×g for 10 min at 4° C., the pellets were resuspended in the 50 mM Tris-HCl, 4 mM MnCl2, 1 μM phosphoramidon, 0.1% BSA binding buffer at pH 7.4 to a final assay concentration of 5 μg protein/well. For inhibition experiments, membranes were incubated with [^3H]SR142801 at a concentration equal to KD value of radioligand and 10 concentrations of the inhibitory compound (0.0003-10 μM) (in a total reaction volume of 500 μl) for 75 min at room temperature (RT). At the end of the incubation, membranes were filtered onto unitfilter (96-well white microplate with bonded GF/C filter preincubated 1 h in 0.3% PEI+0.3% BSA, Packard BioScience, Meriden, Conn.) with a Filtermate 196 harvester (Packard BioScience) and washed 4 times with ice-cold 50 mM Tris-HCl, pH 7.4 buffer. Nonspecific binding was measured in the presence of 10 μM SB222200 for both radioligands. The radioactivity on the filter was counted (5 min) on a Packard Top-count microplate scintillation counter with quenching correction after addition of 45 μl of microscint 40 (Can berra Packard S. A., Zurich, Switzerland) and shaking for 1 h. Inhibition curves were fitted according to the Hill equation: y=100/(1+(x/IC50)^nH), where nH=slope factor using Excel-fit 4 software (Microsoft). IC50 values were derived from the inhibition curve and the affinity constant (Ki) values were calculated using the Cheng-Prussoff equation Ki=IC50/(1+[L]/KD) where [L] is the concentration of radioligand and KD is its dissociation constant at the receptor, derived from the saturation isotherm. All experiments were performed in duplicate and the mean±standard error (SEM) of the individual Ki values was calculated.

Sequence of human NK3 receptor (P29371 whole entry): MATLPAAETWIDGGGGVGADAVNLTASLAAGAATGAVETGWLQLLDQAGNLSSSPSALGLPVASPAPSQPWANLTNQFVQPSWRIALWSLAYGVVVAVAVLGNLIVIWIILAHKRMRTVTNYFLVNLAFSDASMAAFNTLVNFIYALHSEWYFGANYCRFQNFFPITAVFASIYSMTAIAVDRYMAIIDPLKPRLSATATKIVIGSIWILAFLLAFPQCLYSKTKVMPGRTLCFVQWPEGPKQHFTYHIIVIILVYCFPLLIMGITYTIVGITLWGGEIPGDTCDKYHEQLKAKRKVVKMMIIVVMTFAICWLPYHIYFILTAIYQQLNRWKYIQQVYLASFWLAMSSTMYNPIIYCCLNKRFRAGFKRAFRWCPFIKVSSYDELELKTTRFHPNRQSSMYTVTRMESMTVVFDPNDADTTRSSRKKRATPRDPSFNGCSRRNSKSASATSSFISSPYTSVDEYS

Row | Ki | Structure (SMILES)
1 | 0.0478 µM | C[C@]1(COc2ccc(Cl)cn2)CN(C(=O)N2CCN(S(C)(=O)=O)CC2)C[C@@H]1c1ccc(Cl)cc1 (racemic) [Example 2, [(3RS,4RS)-4-(4-Chloro-phenyl)-3-(5-chloro-pyridin-2-yloxymethyl)-3-methyl-pyrrolidin-1-yl]-(4-methanesulfonyl-piperazin-1-yl)-methanone]
2 | 0.0072 µM | CC1(C(=O)N2CCC(C(=O)N3C[C@H](c4ccc(Cl)cc4)[C@@](C)(COc4ccc(Cl)cn4)C3)CC2)CC1 (racemic) [Example 3, [(3RS,4RS)-4-(4-Chloro-phenyl)-3-(5-chloro-pyridin-2-yloxymethyl)-3-methyl-pyrrolidin-1-yl]-[1-(1-methyl-cyclopropanecarbonyl)-piperidin-4-yl]-methanone]
3 | 0.0618 µM | C[C@]1(COc2ccc(Cl)cn2)CN(C(=O)c2ccnc(Cl)c2)C[C@@H]1c1ccc(Cl)cc1 (racemic) [Example 5]
4 | 0.0352 µM | C[C@]1(COc2ccc(Cl)cn2)CN(C(=O)c2ccc(-n3cccn3)nc2)C[C@@H]1c1ccc(Cl)cc1 (racemic) [Example 6, [(3RS,4RS)-4-(4-Chloro-phenyl)-3-(5-chloro-pyridin-2-yloxymethyl)-3-methyl-pyrrolidin-1-yl]-(6-pyrazol-1-yl-pyridin-3-yl)-methanone]
5 | 0.0043 µM | Cc1noc(-c2ccc(C(=O)N3C[C@H](c4ccc(Cl)cc4)[C@@](C)(COc4ccc(Cl)cn4)C3)cc2)n1 (racemic) [Example 7, [(3RS,4RS)-4-(4-Chloro-phenyl)-3-(5-chloro-pyridin-2-yloxymethyl)-3-methyl-pyrrolidin-1-yl]-[4-(3-methyl-[1,2,4]oxadiazol-5-yl)-phenyl]-methanone]
6 | 0.0451 µM | C[C@]1(COc2ccc(Cl)cn2)CN(C(=O)c2ccc(C#N)cc2)C[C@@H]1c1ccc(Cl)cc1 (racemic) [Example 8, 4-[(3RS,4RS)-4-(4-Chloro-phenyl)-3-(5-chloro-pyridin-2-yloxymethyl)-3-methyl-pyrrolidine-1-carbonyl]-benzonitrile]
7 | 0.0563 µM | COc1ccc(C(=O)N2C[C@H](c3ccc(Cl)cc3)[C@@](C)(COc3ccc(Cl)cn3)C2)cn1 (racemic) [Example 9, [(3RS,4RS)-4-(4-Chloro-phenyl)-3-(5-chloro-pyridin-2-yloxymethyl)-3-methyl-pyrrolidin-1-yl]-(6-methoxy-pyridin-3-yl)-methanone]
8 | 0.0874 µM | C[C@]1(COc2ccc(Cl)cn2)CN(C(=O)C2CCOCC2)C[C@@H]1c1ccc(Cl)cc1 (racemic) [Example 10, [(3RS,4RS)-4-(4-Chloro-phenyl)-3-(5-chloro-pyridin-2-yloxymethyl)-3-methyl-pyrrolidin-1-yl]-(tetrahydro-pyran-4-yl)-methanone]
9 | 0.0106 µM | CC(=O)N1CCC(C(=O)N2C[C@H](c3ccc(Cl)cc3)[C@@](C)(COc3ccc(Cl)cn3)C2)CC1 (racemic) [Example 11, 1-{4-[(3RS,4RS)-4-(4-Chloro-phenyl)-3-(5-chloro-pyridin-2-yloxymethyl)-3-methyl-pyrrolidine-1-carbonyl]-piperidin-1-yl}-ethanone]
10 | 0.0225 µM | CC(C)CN1CCC(C(=O)N2C[C@H](c3ccc(Cl)cc3)[C@@](C)(COc3ccc(Cl)cn3)C2)CC1 (racemic) [Example 12, [(3RS,4RS)-4-(4-Chloro-phenyl)-3-(5-chloro-pyridin-2-yloxymethyl)-3-methyl-pyrrolidin-1-yl]-(1-isobutyl-piperidin-4-yl)-methanone]
11 | 0.0087 µM | CC(C)C(=O)N1CCC(C(=O)N2C[C@H](c3ccc(Cl)cc3)[C@@](C)(COc3ccc(Cl)cn3)C2)CC1 (racemic) [Example 13, 1-{4-[(3RS,4RS)-4-(4-Chloro-phenyl)-3-(5-chloro-pyridin-2-yloxymethyl)-3-methyl-pyrrolidine-1-carbonyl]-piperidin-1-yl}-2-methyl-propan-1-one]
12 | 0.015 µM | C[C@]1(COc2ccc(Cl)cn2)CN(C(=O)C2CCN(C3CCCCC3)CC2)C[C@@H]1c1ccc(Cl)cc1 (racemic) [Example 14, [(3RS,4RS)-4-(4-Chloro-phenyl)-3-(5-chloro-pyridin-2-yloxymethyl)-3-methyl-pyrrolidin-1-yl]-(1-cyclohexyl-piperidin-4-yl)-methanone]

Same assay, conditions: membranes from HEK293 cells transiently expressing recombinant human NK3 receptor; [3H]SR142801 radioligand; second half of table, head prints nM; read-out: Ki (nM) hNK3

Row | Ki | Structure (SMILES)
13 | 0.015 µM | Cc1ccc(N2CCC(C(=O)N3C[C@H](c4ccc(Cl)cc4)[C@@](C)(COc4ccc(Cl)cn4)C3)CC2)nc1 (racemic) [Example 15, [(3RS,4RS)-4-(4-Chloro-phenyl)-3-(5-chloro-pyridin-2-yloxymethyl)-3-methyl-pyrrolidin-1-yl]-(5′-methyl-3,4,5,6-tetrahydro-2H-[1,2′]bipyridinyl-4-yl)-methanone]
14 | 0.0037 µM | C[C@]1(COc2ccc(Cl)cn2)CN(C(=O)C2CCN(c3ccc(C#N)cn3)CC2)C[C@@H]1c1ccc(Cl)cc1 (racemic) [Example 16, 4-[(3RS,4RS)-4-(4-Chloro-phenyl)-3-(5-chloro-pyridin-2-yloxymethyl)-3-methyl-pyrrolidine-1-carbonyl]-3,4,5,6-tetrahydro-2H-[1,2′]bipyridinyl-5′-carbonitrile]
15 | 0.0023 µM | C[C@]1(COc2ccc(Cl)cn2)CN(C(=O)C2CCN(c3ccc(C#N)cc3)CC2)C[C@@H]1c1ccc(Cl)cc1 (racemic) [Example 17, 4-{4-[(3RS,4RS)-4-(4-Chloro-phenyl)-3-(5-chloro-pyridin-2-yloxymethyl)-3-methyl-pyrrolidine-1-carbonyl]-piperidin-1-yl}-benzonitrile]
16 | 0.0059 µM | CC(=O)c1ccc(N2CCC(C(=O)N3C[C@H](c4ccc(Cl)cc4)[C@@](C)(COc4ccc(Cl)cn4)C3)CC2)nc1 (racemic) [Example 18, 1-{4-[(3RS,4RS)-4-(4-Chloro-phenyl)-3-(5-chloro-pyridin-2-yloxymethyl)-3-methyl-pyrrolidine-1-carbonyl]-3,4,5,6-tetrahydro-2H-[1,2′]bipyridinyl-5′-yl}-ethanone]
17 | 0.0112 µM | C[C@]1(COc2ccc(Cl)cn2)CN(C(=O)C2CCN(c3ccc(F)cn3)CC2)C[C@@H]1c1ccc(Cl)cc1 (racemic) [Example 19, [(3RS,4RS)-4-(4-Chloro-phenyl)-3-(5-chloro-pyridin-2-yloxymethyl)-3-methyl-pyrrolidin-1-yl]-(5′-fluoro-3,4,5,6-tetrahydro-2H-[1,2′]bipyridinyl-4-yl)-methanone]
18 | 0.0193 µM | C[C@]1(COc2ccc(Cl)cn2)CN(C(=O)C2CCN(c3ccc(Cl)cn3)CC2)C[C@@H]1c1ccc(Cl)cc1 (racemic) [Example 20, [(3RS,4RS)-4-(4-Chloro-phenyl)-3-(5-chloro-pyridin-2-yloxymethyl)-3-methyl-pyrrolidin-1-yl]-(5′-chloro-3,4,5,6-tetrahydro-2H-[1,2′]bipyridinyl-4-yl)-methanone]
19 | 0.039 µM | C[C@]1(COc2ccc(Cl)cn2)CN(C(=O)c2ccc(C#N)nc2)C[C@@H]1c1ccc(Cl)cc1 (racemic) [Example 21, 5-[(3RS,4RS)-4-(4-Chloro-phenyl)-3-(5-chloro-pyridin-2-yloxymethyl)-3-methyl-pyrrolidine-1-carbonyl]-pyridine-2-carbonitrile]
20 | 0.0272 µM | C[C@]1(COc2ccc(Cl)cn2)CN(C(=O)C2CCN(c3ccc(C(F)(F)F)cn3)CC2)C[C@@H]1c1ccc(Cl)cc1 (racemic) [Example 22, [(3RS,4RS)-4-(4-Chloro-phenyl)-3-(5-chloro-pyridin-2-yloxymethyl)-3-methyl-pyrrolidin-1-yl]-(5′-trifluoromethyl-3,4,5,6-tetrahydro-2H-[1,2′]bipyridinyl-4-yl)-methanone]
21 | 0.0261 µM | Cc1nc(-c2ccc(C(=O)N3C[C@H](c4ccc(Cl)cc4)[C@@](C)(COc4ccc(Cl)cn4)C3)cc2)no1 (racemic) [Example 24, [(3RS,4RS)-4-(4-Chloro-phenyl)-3-(5-chloro-pyridin-2-yloxymethyl)-3-methyl-pyrrolidin-1-yl]-[4-(5-methyl-[1,2,4]oxadiazol-3-yl)-phenyl]-methanone]
22 | 0.0044 µM | C[C@]1(COc2ccc(Cl)cn2)CN(C(=O)C2CCN(c3ccc(C#N)nc3)CC2)C[C@@H]1c1ccc(Cl)cc1 (racemic) [Example 25, 4-[(3RS,4RS)-4-(4-Chloro-phenyl)-3-(5-chloro-pyridin-2-yloxymethyl)-3-methyl-pyrrolidine-1-carbonyl]-3,4,5,6-tetrahydro-2H-[1,3′]bipyridinyl-6′-carbonitrile]
23 | 0.0931 µM | C[C@]1(COc2ccc(Cl)cn2)CN(C(=O)c2ccc(N3CCCCC3=O)cc2)C[C@@H]1c1ccc(Cl)cc1 (racemic) [Example 27, 1-{4-[(3RS,4RS)-4-(4-Chloro-phenyl)-3-(5-chloro-pyridin-2-yloxymethyl)-3-methyl-pyrrolidine-1-carbonyl]-phenyl}-piperidin-2-one]
